# Data reported in ChEMBL document CHEMBL5113488, “Design, synthesis and antitumor activity study of a gemcitabine prodrug conjugated with a HDAC6 inhibitor” (Bioorg Med Chem Lett, 2022).
# Active and inactive are the calls of the source. The rule behind the calls is not given here.
# Key:
# Cytochrome P450 2E1 = Cytochrome P450 2E1 (Rattus norvegicus, UniProt P05182); assay: Inhibition of CYP2E1 in rat liver microsomes using chlorzoxazone as substrate; assay type: ADME, Microsome
# 4T1 [1] = assay: Antitumor activity against mouse 4T1 cells implanted in mouse assessed as tumor growth inhibition at 10 mg/kg administered for 15 days relative to control; assay type: functional; conditions: 4T1, 360 h, time 15 day, read-out: TGI
# 4T1 [2] = assay: Antiproliferative activity against mouse 4T1 cells assessed as inhibition of cell growth; assay type: functional, cell-based
# MDA-MB-231 [3] = assay: Antiproliferative activity against human MDA-MB-231 cells assessed as inhibition of cell growth pretreated with hENT1 inhibitor, dipyridamole at 10 uM followed by compound addition; assay type: functional, cell-based
# [4] = Toxicity in mouse implanted with mouse 4T1 cells assessed as pathological damage in heart at 5 to 10 mg/kg administered for 15 days by H and E staining based analysis; assay type: organism-based; conditions: 4t1, 360 h, dose 5-10 mg/kg, time 15 day
# Cytochrome P450 2D1 = molecular target: T1, Cytochrome P450 2D1 (Rattus norvegicus, UniProt P10633); assay: Inhibition of CYP2D1 in rat liver microsomes using dextromethorphan as substrate; assay type: ADME, Microsome
# T1 sequence (P10633 whole entry): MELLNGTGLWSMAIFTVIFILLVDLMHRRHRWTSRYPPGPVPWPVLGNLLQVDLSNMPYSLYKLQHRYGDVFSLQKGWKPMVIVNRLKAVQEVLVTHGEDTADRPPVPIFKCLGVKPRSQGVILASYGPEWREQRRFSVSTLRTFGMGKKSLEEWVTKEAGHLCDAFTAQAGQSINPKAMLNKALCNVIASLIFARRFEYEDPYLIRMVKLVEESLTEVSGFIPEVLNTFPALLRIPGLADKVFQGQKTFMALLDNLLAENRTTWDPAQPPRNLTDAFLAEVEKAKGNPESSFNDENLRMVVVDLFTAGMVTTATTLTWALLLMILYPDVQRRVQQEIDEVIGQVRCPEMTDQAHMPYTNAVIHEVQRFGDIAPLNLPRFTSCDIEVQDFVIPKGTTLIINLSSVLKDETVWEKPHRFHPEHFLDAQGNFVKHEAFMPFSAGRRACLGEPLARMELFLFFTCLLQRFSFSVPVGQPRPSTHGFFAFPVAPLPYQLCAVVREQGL
# PANC-1 = assay: Antiproliferative activity against human PANC-1 cells assessed as inhibition of cell growth; assay type: functional, cell-based
# HeLa = assay: Antiproliferative activity against human HeLa cells assessed as inhibition of cell growth; assay type: functional, cell-based
# [5] = Toxicity in mouse implanted with mouse 4T1 cells assessed as pathological damage in liver at 5 to 10 mg/kg administered for 15 days by H and E staining based analysis; assay type: organism-based; conditions: 4t1, 360 h, dose 5-10 mg/kg, time 15 day
# SGC-7901 = assay: Antiproliferative activity against human SGC-7901 cells assessed as inhibition of cell growth; assay type: functional, cell-based
# A549 = assay: Antiproliferative activity against human A549 cells assessed as inhibition of cell growth; assay type: functional, cell-based
# Cytochrome P450 1A2 = molecular target: T2, Cytochrome P450 1A2 (Rattus norvegicus, UniProt P04799); assay: Inhibition of CYP1A2 in rat liver microsomes using phenacetin as substrate; assay type: ADME, Microsome
# T2 sequence (P04799 whole entry): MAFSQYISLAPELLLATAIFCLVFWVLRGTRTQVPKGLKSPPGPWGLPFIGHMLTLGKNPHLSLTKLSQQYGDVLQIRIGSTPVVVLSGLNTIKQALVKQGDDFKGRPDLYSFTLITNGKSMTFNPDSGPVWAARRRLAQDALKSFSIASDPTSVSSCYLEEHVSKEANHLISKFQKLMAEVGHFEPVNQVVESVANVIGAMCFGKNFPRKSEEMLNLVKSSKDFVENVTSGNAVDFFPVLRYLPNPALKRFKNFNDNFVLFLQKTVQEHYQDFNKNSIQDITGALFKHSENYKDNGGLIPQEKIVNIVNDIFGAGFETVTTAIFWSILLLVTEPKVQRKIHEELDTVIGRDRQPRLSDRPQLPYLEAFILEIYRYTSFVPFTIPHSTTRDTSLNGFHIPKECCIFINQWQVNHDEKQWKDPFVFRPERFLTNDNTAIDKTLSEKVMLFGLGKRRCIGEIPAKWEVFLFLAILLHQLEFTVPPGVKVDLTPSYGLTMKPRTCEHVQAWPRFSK
# [6] = Toxicity in mouse implanted with mouse 4T1 cells assessed as pathological damage in kidney at 5 to 10 mg/kg administered for 15 days by H and E staining based analysis; assay type: organism-based; conditions: 4t1, 360 h, dose 5-10 mg/kg, time 15 day
# Cytochrome P450 3A2 [7] = molecular target: T3, Cytochrome P450 3A2 (Rattus norvegicus, UniProt P05183); assay: Inhibition of CYP3A2 in rat liver microsomes using midazolam as substrate; assay type: ADME, Microsome
# T3 sequence (P05183 whole entry): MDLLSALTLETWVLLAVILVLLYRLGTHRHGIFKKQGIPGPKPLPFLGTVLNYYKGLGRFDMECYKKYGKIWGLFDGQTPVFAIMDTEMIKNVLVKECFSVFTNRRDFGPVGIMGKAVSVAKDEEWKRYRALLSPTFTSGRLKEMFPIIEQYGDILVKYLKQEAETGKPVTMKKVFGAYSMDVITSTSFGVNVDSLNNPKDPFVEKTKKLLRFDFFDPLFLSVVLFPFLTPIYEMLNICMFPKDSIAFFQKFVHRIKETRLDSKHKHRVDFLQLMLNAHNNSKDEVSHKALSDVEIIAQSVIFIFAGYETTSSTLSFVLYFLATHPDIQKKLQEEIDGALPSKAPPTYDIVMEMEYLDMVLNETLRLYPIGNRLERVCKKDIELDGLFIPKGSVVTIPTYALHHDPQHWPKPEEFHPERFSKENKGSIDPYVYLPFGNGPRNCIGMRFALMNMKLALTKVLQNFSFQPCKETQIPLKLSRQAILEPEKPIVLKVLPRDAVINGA
# Huh-7 = assay: Antiproliferative activity against human Huh-7 cells assessed as inhibition of cell growth; assay type: functional, cell-based
# [8] = Toxicity in mouse implanted with mouse 4T1 cells assessed as body weight loss at 5 to 10 mg/kg administered for 15 days; assay type: organism-based; conditions: 4t1, 360 h, dose 5-10 mg/kg, time 15 day
# Cytochrome P450 2C6 = molecular target: T4, Cytochrome P450 2C6 (Rattus norvegicus, UniProt P05178); assay: Inhibition of CYP2C6 in rat liver microsomes using diclofenac as substrate; assay type: ADME, Microsome
# T4 sequence (P05178 whole entry): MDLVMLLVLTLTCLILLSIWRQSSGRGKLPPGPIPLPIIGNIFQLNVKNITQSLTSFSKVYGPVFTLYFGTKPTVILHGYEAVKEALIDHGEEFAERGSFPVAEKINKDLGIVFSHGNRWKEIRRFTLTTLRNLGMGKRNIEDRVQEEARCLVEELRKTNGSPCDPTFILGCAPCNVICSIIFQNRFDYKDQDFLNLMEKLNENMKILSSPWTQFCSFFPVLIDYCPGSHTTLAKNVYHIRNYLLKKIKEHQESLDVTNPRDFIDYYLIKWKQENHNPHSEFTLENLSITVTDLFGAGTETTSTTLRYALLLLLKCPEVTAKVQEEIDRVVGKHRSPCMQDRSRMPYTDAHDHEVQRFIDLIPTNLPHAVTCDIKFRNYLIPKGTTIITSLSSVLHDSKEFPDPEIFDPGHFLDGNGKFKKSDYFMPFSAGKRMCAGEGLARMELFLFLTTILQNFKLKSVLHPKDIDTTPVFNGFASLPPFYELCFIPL
# MDA-MB-231 [9] = assay: Antiproliferative activity against human MDA-MB-231 cells assessed as inhibition of cell growth; assay type: functional, cell-based
# MDA-MB-231 [10] = assay: Antiproliferative activity against human MDA-MB-231 cells assessed as inhibition of cell growth incubated in presence of 10 uM imatinib; assay type: functional, cell-based
# MDA-MB-231 [11] = assay: Induction of DNA damage in human MDA-MB-231 cells assessed as increase in phospho-gamma-H2A.X expression level at 0.3 to 3 uM; assay type: functional, cell-based; conditions: dose 0.3-3 µM
# 4T1 [12] = assay: Antitumor activity against mouse 4T1 cells implanted in mouse assessed as tumor growth inhibition at 5 mg/kg administered for 15 days relative to control; assay type: functional; conditions: 4T1, 360 h, time 15 day, read-out: TGI
# HCT-116 = assay: Antiproliferative activity against human HCT-116 cells assessed as inhibition of cell growth; assay type: functional, cell-based
# SK-OV-3 = assay: Antiproliferative activity against human SK-OV-3 cells assessed as inhibition of cell growth; assay type: functional, cell-based
# Cytochrome P450 3A2 [13] = molecular target: T3, Cytochrome P450 3A2; assay: Inhibition of CYP3A2-mediated metabolite formation in rat liver microsomes assessed as reduction in N-(1-((2R,4R,5R)-3,3-difluoro-4-hydroxy-5-(hydroxymethyl)tetrahydrofuran-2-yl)-2-oxo-1,2-dihydropyrimidin-4-yl)pentadecanamide metabolism; assay type: ADME, Microsome
# Sequence of Cytochrome P450 2E1 (P05182 whole entry): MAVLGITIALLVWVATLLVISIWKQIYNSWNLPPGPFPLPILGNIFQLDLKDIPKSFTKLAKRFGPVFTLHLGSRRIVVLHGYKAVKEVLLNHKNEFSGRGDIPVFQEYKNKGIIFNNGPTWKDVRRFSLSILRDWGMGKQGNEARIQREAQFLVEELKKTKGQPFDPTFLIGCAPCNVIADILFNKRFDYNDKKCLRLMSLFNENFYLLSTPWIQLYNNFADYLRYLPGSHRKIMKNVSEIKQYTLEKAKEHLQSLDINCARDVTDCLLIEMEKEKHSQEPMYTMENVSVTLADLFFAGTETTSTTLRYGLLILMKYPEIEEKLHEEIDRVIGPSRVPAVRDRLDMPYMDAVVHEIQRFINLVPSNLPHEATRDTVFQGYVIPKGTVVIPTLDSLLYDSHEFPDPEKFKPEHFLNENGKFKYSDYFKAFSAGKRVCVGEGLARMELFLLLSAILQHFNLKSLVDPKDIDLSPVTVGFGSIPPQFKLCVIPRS
IC50 (4T1 [2]) [µM],IC50 (MDA-MB-231 [3]) [µM],IC50 (PANC-1) [µM],IC50 (HeLa) [µM],IC50 (SGC-7901) [µM],IC50 (A549) [µM],IC50 (Huh-7) [µM],IC50 (MDA-MB-231 [9]) [µM],IC50 (MDA-MB-231 [10]) [µM],IC50 (HCT-116) [µM],IC50 (SK-OV-3) [µM],SMILES,inhibition in vivo at 10 mg/kg (4T1 [1]) [%],also measured
0.66,0.17,1.08,0.43,3.7,0.14,0.12,0.14,0.072,0.3,0.62,CCCCCCCCCCCCCCC(=O)Nc1ccn([C@@H]2O[C@H](CO)[C@@H](O)C2(F)F)c(=O)n1,83.8,Ki (Cytochrome P450 2E1): 196 µM; Activity [4]: Non-Toxic; Ki (Cytochrome P450 2D1): 179 µM; Activity [5]: Non-Toxic; Ki (Cytochrome P450 1A2): 127 µM; Activity [6]: Non-Toxic; Ki (Cytochrome P450 3A2 [7]): 52.6 µM; Activity [8]: Non-Toxic; Ki (Cytochrome P450 2C6): 203 µM; Activity (MDA-MB-231 [11]): Active; inhibition in vivo at 5 mg/kg (4T1 [12]): 73.2%
7.17,7.21,1.34,1.99,9.32,0.38,0.74,2.01,0.818,3.05,0.44,Nc1ccn([C@@H]2O[C@H](CO)[C@@H](O)C2(F)F)c(=O)n1 [GEMCITABINE],58.7,
,,,,,,,,,,,CC(=O)N1CCN(c2ccc(OCC3COC(Cn4ccnc4)(c4ccc(Cl)cc4Cl)O3)cc2)CC1 (stereo unspecified) [KETOCONAZOLE],,inhibition (INH) (Cytochrome P450 3A2 [13]): Active
